Results from patent US5654411A, “Process for preparing 4-deoxyerythromycin derivatives” (Abbott Laboratories, priority 1995, dated 1997).

System: smooth muscle strips isolated from rabbit small intestine
Test: Induction of in vitro rabbit duodenal smooth muscle contraction
Details: for Relative Potency: relative to erythromycin A = 1.0; for EC50: Oryctolagus cuniculus, rabbit duodenum longitudinal muscle, 37° C., pH 7.5, read-out: pED50 (negative logarithm of the concentration producing half of the maximal contraction) (converted)
Protocol: The compounds of the present invention were tested in vitro for their ability to induce contraction of smooth muscle strips isolated from rabbit small intestine using the following procedure:
Rabbits were sacrificed and 15 cm of duodenum was rapidly removed and placed in ice-cold modified Ringers solution (120 mM sodium chloride, 25 mM sodium bicarbonate, 4.7 mM potassium chloride, 1.25 mM calcium chloride, 1.20 mM magnesium sulfate and 5.6 mM glucose). The longitudinal muscle layer was separated from the circular muscle by blunt dissection and cut into strips of 10×20 mm. Double-folded strips were vertically suspended between two hooks in 10 mL tissue baths with a mechanical preload of 1 g. The upper hook was connected to an […] force transducer, and its displacement was recorded on a Grass polygraph. The tissue baths contained modified Ringers solution at 37° C. and were continuously gassed with 95% oxygen/5% carbon dioxide in order to maintain the pH at 7.5.
After a stabilization period of at least 60 minutes, a contractility dose-response series was performed by adding increasing final concentrations of methacholine (10^-7 M, 10^-6 M and 10^-5 M) in volumes of 100 μL. The bath solutions were replaced at least three times between doses.
After the methacholine dose-response series was completed, a test compound dose response curve was initiated by the same procedure used for the methacholine dose-response series, with at least five concentrations of test compound within the range of 10^-10 M to 10^-4 M. The tissues were washed repeatedly between doses, and the studies were completed by recording the contractile response to 10^-5 M methacholine to ascertain integrity of the muscle preparation. Contractile responses were expressed as percent of maximal contraction. The concentration of test compound which produces half of the maximal contraction (ED50 value) and the negative logarithm of the ED50 value (PED50) were estimated from the dose-response curves.

| Compound | EC50 [nM] | Endpoint (pED50) could not be obtained, potency in words (footnote a of Table 2) | Relative Potency |
| --- | --- | --- | --- |
| CC[C@H]1OC(=O)[C@H](C)[C@@H](O[C@H]2C[C@@](C)(OC)C[C@H](C)O2)[C@H](C)[C@@H](O[C@@H]2O[C@H](C)C[C@H](NC)[C@H]2O)[C@@]2(C)CC(C)=C(O2)[C@H](C)[C@@H](O)[C@H]1C [Example 6, 8,9-anhydro-4"-deoxy-3'-N-desmethylerythromycin B-6,9-hemiketal] |  | extremely high potency | > 8000 |
| CC[C@H]1OC(=O)[C@H](C)[C@@H](O[C@H]2C[C@@](C)(OC)C[C@H](C)O2)[C@H](C)[C@@H](O[C@@H]2O[C@H](C)C[C@H](NC)[C@H]2O)[C@@]2(C)C[C@@H](C)C(O2)[C@H](C)[C@@H](O)[C@]1(C)O [Example 14, 9-Deoxo-4',6-Dideoxy-3'-N-Desmethyl-6,9-Epoxyerythromycin A] | 70.8 |  | 20 |
| CC[C@H]1OC(=O)[C@H](C)[C@@H](O[C@H]2C[C@@](C)(OC)[C@@H](O)[C@H](C)O2)[C@H](C)[C@@H](O[C@@H]2O[C@H](C)C[C@H](N(C)C)[C@H]2O)[C@](C)(O)C[C@@H](C)C(=O)[C@H](C)[C@@H](O)[C@]1(C)O [erythromycin A, reference compound] | 1410 |  |  |
| C#CC[N+](C)(C)[C@H]1C[C@@H](C)O[C@@H](O[C@@H]2[C@@H](C)[C@H](O[C@H]3C[C@@](C)(OC)C[C@H](C)O3)[C@@H](C)C(=O)O[C@H](CC)[C@@](C)(O)[C@H](O)[C@@H](C)C3O[C@]2(C)C[C@H]3C)[C@@H]1O [Example 16, 9-deoxo-4",6-dideoxy-6,9-epoxy-3'-N-propargylerythromycin A bromide] | 40.7 |  | 35 |

The next lines start with results.

| EC50 [nM] | Compound | Endpoint (pED50) could not be obtained, potency in words (footnote a of Table 2) | Relative Potency |
| --- | --- | --- | --- |
| 22.9 | C#CC[N+](C)(C)[C@H]1C[C@@H](C)O[C@@H](O[C@@H]2[C@@H](C)[C@H](O[C@H]3C[C@@](C)(OC)C[C@H](C)O3)[C@@H](C)C(=O)O[C@H](CC)[C@@](C)(O)[C@H](O)[C@@H](C)C3=C(C)C[C@@]2(C)O3)[C@@H]1O [Example 5, 8,9-anhydro-4"-deoxy-3'-N-propargylerythromycin A-6,9-hemiketal bromide] |  | 62 |
| 0.166 | CC[C@H]1OC(=O)[C@H](C)[C@@H](O[C@H]2C[C@@](C)(OC)C[C@H](C)O2)[C@H](C)[C@@H](O[C@@H]2O[C@H](C)C[C@H](N(C)C)[C@H]2O)[C@@]2(C)C[C@@H](C)C(O2)[C@H](C)[C@@H](O)[C@]1(C)O [Example 13, 9-deoxo-4",6-dideoxy-6,9-epoxyerythromycin A] |  | 8,511 |
| 0.00316 | CC[C@H]1OC(=O)[C@H](C)[C@@H](O[C@H]2C[C@@](C)(OC)C[C@H](C)O2)[C@H](C)[C@@H](O[C@@H]2O[C@H](C)C[C@H](N(C)CC)[C@H]2O)[C@@]2(C)CC(C)=C(O2)[C@H](C)[C@@H](O)[C@]1(C)O [Example 4, 8,9-anhydro-4"-deoxy-3'-N-desmethyl-3'-N-ethylerythromycin A-6,9-hemiketal] |  | 199,526 |
